Article PMC13164762, “Development and Validation of an LC-MS/MS Method for the Quantitation of JNJ-64619178 (JNJ) in Mouse Plasma: Characterization of In Vitro and In Vivo Pharmacokinetic Properties” (Molecules, 2026)

Tests used:
[1] = Parallel artificial membrane permeability assay (PAMPA); type: physicochemical; details: 5 µg mL^−1 in PBS, room temperature, read-out: apparent permeability (Papp), PAMPA
Experimental: A Corning® BioCoat™ Pre-coated PAMPA Plate System, obtained from Corning Life Sciences (Glendale, AZ, USA), was used for the noncell-based permeability assay. As per the manufacturer’s instructions, the PAMPA plate was warmed at room temperature for 30 min to make it ready for use. A JNJ stock solution was prepared in PBS at a concentration of 5 µg mL^−1. Then, 300 µL of that prepared solution was poured into the donor side and 200 µL PBS was added to the acceptor side of each well in triplicate. After incubation for 5 h at room temperature, 50 µL samples were collected separately from the donor and acceptor chamber. Finally, samples were processed following the extraction procedure and analyzed using LC-MS/MS analysis. The apparent permeability coefficient is determined using the following formula:(8) Papp=−ln[1 − Cat/Ceq]/A ∗ 1/Vd + 1/Va∗t where Papp = apparent permeability in cm s^−1, Co = initial compound concentration in donor well (µg mL^−1), Cd(t) = compound concentration in donor well at time t (µg mL^−1), Ca(t) = compound concentration in acceptor well at time t (µg mL^−1), Vd = donor well volume (0.3 mL), Va = acceptor well volume (0.2 mL), A = filter area (0.3 cm^2), and t = incubation time (18,000 s). Ceq is calculated by(9) Ceq=[Cd(t)∗Vd+Ca(t)∗Va] /(Vd+Va)

[2] = Matrix stability study in mouse brain homogenate; type: in vitro ADME; details: 5 µg mL^−1, 37 °C, approximately 5 h, triplicate, read-out: concentration remaining (%)
Experimental: For the matrix stability study, JNJ was spiked into mouse plasma and brain homogenate at a final concentration of 5 µg mL^−1 and incubated at 37 °C for 5 h on a shaking water bath in triplicate. At the specified sampling times, 50 µL aliquots were taken in the collection plate, followed by quenching with 300 µL acetonitrile containing 10 µL IS. After final collection, samples were vortexed at 1000 rpm for 2 min and centrifuged at 2200× g for 10 min, and the collected supernatant was analyzed using LC-MS/MS. Stability was estimated by determining the % remaining after 5 h of incubation using Equation (1).(1) % remaining=Concentration5h/Concentration0h×100

[3] = Stability of JNJ in mouse plasma at different storage conditions; type: in vitro ADME
Experimental: The stability of JNJ in mouse plasma was evaluated at three replicates of LQC and HQCs in different storage conditions. Studies were conducted with the study of bench-top stability for 4 h at room temperature, freeze–thaw stability (three freeze–thaw cycles), autosampler stability (4 °C for 48 h) and long-term stability (at −80 °C for 1 month). Samples were considered stable if the % drug remaining after storage conditions was within ±15% compared to the freshly prepared QC samples.

Papp at 5 h, 5 µg mL^−1 [1]: 7 ± 4 ×10⁻⁶ cm/s
remaining at 5 h, 5 µg mL^−1 [2]: ~100%
% Stability Recoveries (Mean ± SD), Autosampler (4 °C, 48 h) ([3]; HQC (375 ng mL^−1)): 110 ± 6%
% Stability Recoveries (Mean ± SD), Bench-Top (RT, 4 h) ([3]; HQC (375 ng mL^−1)): 101 ± 15%
% Stability Recoveries (Mean ± SD), Freeze–Thaw (−80 ± 5 °C After 3 Cycle) ([3]; HQC (375 ng mL^−1)): 94 ± 8%
% Stability Recoveries (Mean ± SD), Long-Term Stability (−80 ± 5 °C, 30 Days) ([3]; HQC (375 ng mL^−1)): 95 ± 8%
% Stability Recoveries (Mean ± SD), Autosampler (4 °C, 48 h) ([3]; LQC (0.5 ng mL^−1)): 110 ± 7%
% Stability Recoveries (Mean ± SD), Bench-Top (RT, 4 h) ([3]; LQC (0.5 ng mL^−1)): 91 ± 9%
% Stability Recoveries (Mean ± SD), Freeze–Thaw (−80 ± 5 °C After 3 Cycle) ([3]; LQC (0.5 ng mL^−1)): 93 ± 4%
% Stability Recoveries (Mean ± SD), Long-Term Stability (−80 ± 5 °C, 30 Days) ([3]; LQC (0.5 ng mL^−1)): 97 ± 9%
Structure (SMILES): Nc1nc2cc(CC[C@H]3C[C@@H](n4ccc5c(N)ncnc54)[C@H](O)[C@@H]3O)ccc2cc1Br [JNJ, JNJ-64619178]
